One compound from patent US20230248723A1, “PYRROLO[2,3-B]PYRAZINE COMPOUNDS AS CCCDNA INHIBITORS FOR THE TREATMENT OF HEPATITIS B VIRUS (HBV) INFECTION” (Hoffmann-La Roche Inc., priority 2017, published 2023) can be followed below.

Each structure is given as a SMILES string. pIC50: −log10 of the molar value. Like-named read-outs stand apart in the source and are kept apart here.

Common to all, as to type: cell-based
In one assay the test system is pgRNA. Put plainly: pgRNA assay (branched DNA), HBV-infected PHH. The following applies: Hepatitis B virus. On the procedure:
(§1) Fresh primary human hepatocytes (PXB-PHH) harvested from humanized mice (uPA/SCID mice)—herein called PHH—were obtained from PhoenixBio Co., Ltd (Japan). Cells were seeded on a collagen I-coated plate at the following cell density: 35,000 cells/well (384-well), 70,000 cells/well (96-well), or, 400,000 cells/well (24-well) in modified hepatocyte clonal growth medium (dHCGM). dHCGM is a DMEM medium containing 100 U/ml Penicillin, 100 μg/ml Streptomycin, 20 mM Hopes, 44 mM NaHCO3, 15 μg/ml L-proline, 0.25 μg/ml insulin, 50 nM Dexamethazone, 5 ng/ml EGF, 0.1 mM Asc-2P, 2% DMSO and 10% FBS (Ishida et al., 2015). Cells were cultured at 37° C. incubator in a humidified atmosphere with 5% CO2. Culture medium was replaced 24 h post-plating and every 2 days until harvest.
(§2) Following 4 day of maturation with 1 μM MB-1, HLC were incubated with HBV (purified from CHB individuals) at multiplicity of infection (MOI) 10-40 without PEG for 24 hr; virus inoculum was removed the following day. […] Compound treatment in HLC and PHH was started at day 3 post infection. Compound (in powder) was dissolved in DMSO; the final concentration of DMSO added to cells is 1%. Fresh compound was replenished every 2 day until cells were harvested at day 10 (PHH), or day 14 (HLC). Compound effect on HBV and cellular toxicity was measured by multiplex assay (HBsAg, HBeAg, albumin), branched DNA (pgRNA), or digital PCR (cccDNA) and depicted as % of inhibition compared to DMSO control. Graphs were prepared using Spotfire software.
Levels of pgRNA in infected cells (96-well plate) were measured using QuantiGene Singleplex 2.0 assay (Affymetrix), a hybridization-based assay that utilizes the xMAP™ Luminex magnetic beads and branched DNA (bDNA) signal amplification technology. The assay is performed in 96-well plate according to manufacturer's recommendation. Briefly, cells were lysed and lysates were incubated with HBV probe sets panel at 50-55° C. for 30 min then stored at −80° C. Signal amplification is achieved via sequential hybridization of PreAmplifier, Amplifier, and Label Probe. After adding Streptavidin phycoerythrin (SAPE) substrate, the signal is read using a FlexMap 3D (Luminex) instrument.

For a further assay, the system named is cccDNA. Put plainly: cccDNA (digital PCR), HBV-infected HepaRG. The following applies: for IC50: Hepatitis B virus.
A further assay deals with HBsAg. Kind of assay: HBsAg, multiplex assay, HBV-infected PHH. The following applies: Hepatitis B virus. On the procedure:
as §1, §2
A custom, Luminex-based multiplex assay that simultaneously measured HBeAg, albumin, and HBsAg was developed by Radix BioSolutions (Georgetown, Tex.). This is a sandwich immunoassay; each capture antibody was coupled with xMAP™ Luminex magnetic beads. The dynamic ranges of analyte detection are as follows: HBeAg (1-316 ng/ml), albumin (3.1-10,000 ng/ml), and HBsAg (0.1-100 ng/ml) with coefficient variant (CV) […]. Samples were read on FlexMAP 3D (Luminex) and analyzed by Genedata software.

Regarding `O=C(NC(CO)CO)c1c[nH]c2ncc(C3CC3)nc12` [compound 7], the IC50 with pgRNA (240 h, patient-derived HBV GT A, MOI 40, day 10 pi, read-out: pgRNA IC50 (μM) Median) turned out to be 3.58 µM; with pgRNA (240 h, patient-derived HBV GT B, MOI 40, day 10 pi, read-out: pgRNA IC50 (μM) Median) it was 3.13 µM; in the assay with pgRNA (240 h, patient-derived HBV GT C, MOI 40, day 10 pi, read-out: pgRNA IC50 (μM) Median), 1.64 µM; in the assay on pgRNA (240 h, patient-derived HBV GT D, MOI 40, day 10 pi (Table 5), read-out: pgRNA IC50 (μM) Median), 1.35 µM; in the assay with pgRNA (HepG2.2.15-derived HBV GT D, MOI 40, read-out: pgRNA IC50 (μM) Median), 12.8 µM; in the assay on pgRNA (HepG2.2.15-derived HBV GT D, MOI 125, read-out: pgRNA IC50 (μM) Median), 11.3 µM. The IC50 with pgRNA (patient-derived HBV GT D, MOI 40 (Table 6), read-out: pgRNA IC50 (μM) Median) came to 1.48 µM; with pgRNA (patient-derived HBV GT D, MOI 125, read-out: pgRNA IC50 (μM) Median) it was 2.87 µM; with cccDNA (HepG2.2.15-derived HBV GT D, MOI 40, read-out: cccDNA IC50 (μM) Median), 25.9 µM; with cccDNA (HepG2.2.15-derived HBV GT D, MOI 125, read-out: cccDNA IC50 (μM) Median), 27.2 µM; in the assay on cccDNA (patient-derived HBV GT D, MOI 125, read-out: cccDNA IC50 (μM) Median), 7.05 µM; in the assay with HBsAg (240 h, read-out: HBsAg IC50 (μM) Median, PHH, patient-derived HBV GT A, MOI 40, day 10 pi), 0.33 µM. Moreover, the IC50 with HBsAg (240 h, read-out: HBsAg IC50 (μM) Median, PHH, patient-derived HBV GT B, MOI 40, day 10 pi) amounted to 0.34 µM; in the assay with HBsAg (240 h, read-out: HBsAg IC50 (μM) Median, PHH, patient-derived HBV GT C, MOI 40, day 10 pi) it was 0.3 µM; in the assay with HBsAg (240 h, read-out: HBsAg IC50 (μM) Median, PHH, patient-derived HBV GT D, MOI 40, day 10 pi (Table 5)), 0.3 µM; with HBsAg (read-out: HBsAg IC50 (μM) Median, PHH, HepG2.2.15-derived HBV GT D, MOI 40) it was 9.98 µM; in the assay with HBsAg (read-out: HBsAg IC50 (μM) Median, PHH, HepG2.2.15-derived HBV GT D, MOI 125), 8.98 µM; with HBsAg (read-out: HBsAg IC50 (μM) Median, PHH, patient-derived HBV (GT D)) it was 0.45 µM. The IC50 with HBsAg (read-out: HBsAg IC50 (μM) Median, PHH, patient-derived HBV GT D, MOI 40 (Table 6)) worked out at 0.44 µM; in the assay with HBsAg (read-out: HBsAg IC50 (μM) Median, PHH, patient-derived HBV GT D, MOI 125), 0.8 µM. The pIC50 with pgRNA (patient-derived HBV, read-out: pgRNA IC50) is 5.83; with HBsAg (read-out: HBsAg IC50s, PHH, patient-derived HBV GT A-D, range stated in text for HBsAg & HBeAg) it was 6.35 to 6.62. Moreover, the “cccDNA IC50 (μM) Median” value in the assay on cccDNA (patient-derived HBV GT D, MOI 40) is reported as “below LLOQ”.

For orientation: IC50 means the concentration at which inhibition is half-maximal.
